According to a melting point compilation (Tetko et al.; mined from patent text by program, amines drawn as free bases though some values may be those of a salt):

Row | Structure (SMILES) | melting point [°C]
1 | Cc1cccc2c(-c3ccc(F)cc3)onc12 | 134 to 136
2 | CC(C)Cc1ccc(CCCCc2cc3c(s2)NC(=S)CN=C3c2ccccc2Cl)cc1 | 133 to 135
3 | C[C@H](NC(=O)c1cc(Cl)c(Cl)cc1C(=O)O)C(=O)N1CCC[C@H]1C(=O)O | 134 to 137
4 | Cc1c(CCc2ccccc2)c(=O)oc2cc(O)cc(O)c12 | 248 to 252
5 | Nc1ccc(OC(F)F)cc1[N+](=O)[O-] | 68 to 70
6 | O=S(=O)(On1nnc2ccccc21)c1ccccc1 | 83 to 84
7 | CC(C)(C)C(=Cc1ccc(Cl)cc1Cl)Cn1cncn1 | 78
8 | COCCO[C@@H]1c2ccc3c(nc(C)n3C3CC3)c2O[C@H](c2ccccc2)[C@H]1O | 183
9 | Oc1ccc(O)c(F)c1 | 33 to 35
10 | COc1cc(Cl)c(N2CCN(c3cccc(C(F)(F)F)c3)CC2)c(Cl)c1 | 87 to 89
11 | CCCCOc1c(CNC(=O)OC(C)(C)C)n(CC(C)(C)C)c(=O)c2ccc(C=O)cc12 | 149 to 150
12 | N#CCOC(=O)C=Cc1cc2ccccc2o1 | 119 to 121
13 | CCc1ccc(CC(C)(C)NC(C)=O)cc1 | 90 to 92
14 | COC(=O)c1cc2c3ccccc3n(C)c2s1 | 134
15 | Cc1nnc(-c2ccc3ncn(-c4ccc(S(C)=O)cc4)c3c2)o1 (stereo unspecified) | 246 to 247
16 | CCC1(C)Cc2c(C)c(N3CCN(c4ccc(OC)cc4)CC3)c(C)c(C)c2O1 (stereo unspecified) | 106 to 110
17 | S=C1CSc2cc(Cl)ccc2N1 | 202 to 204
18 | CCCCc1nn(-c2cc([N+](=O)[O-])ccc2Cl)c(=O)n1Cc1ccc(-c2ccccc2S(N)(=O)=O)cc1 | > 90
19 | Cc1noc(NC(=O)N2CCN(c3cc(-c4ccc(F)cc4)ncn3)CC2)c1C | 207 to 208
20 | COCc1c(C(=O)OC(C)C)ncc2[nH]c3cccc(Oc4ccc([N+](=O)[O-])cc4)c3c12 | 217 to 219
21 | Cc1cccc(NC(=O)Cn2c3c(c4cc(Cl)c(Cl)cc42)CCN(C(=O)OC(C)(C)C)CC3)c1C | 186 to 188
22 | CC(=O)NCCCC(=O)c1ccc(Cl)cc1CCC(=O)O | 90 to 92
23 | CC(C)CC(NC(=O)OCc1ccccc1)C(=O)Nc1nncs1 (racemic) | 118 to 120
24 | O=C(O)/C=C/n1cnc2ccc(OCCO)cc2c1=O | 247 to 248
25 | CC(=O)NCC1CN(c2ccc(N3CCN(c4nnc(C5CC5)s4)CC3)c(F)c2)C(=O)O1 (stereo unspecified) | 217 to 218
26 | CCCCc1ccc(NC2=NCCS2)cc1 | 73 to 75

Row | Structure (SMILES) | melting point [°C]
27 | O=C(O)c1cc(-n2c(-c3ccccc3)cc3c2CCc2ccccc2-3)ccc1O | 223 to 225
28 | CCC(C)C(C)C(=O)Nc1ccc2c(C)cn3c(=O)c(C(=O)Nc4nnn[nH]4)cnc3c2c1 (stereo unspecified) | > 300
29 | CS(=O)(=O)OC[C@@H]1CN(c2ccc(O)cc2)C(=O)O1 | 282 to 284
30 | CC1=NCC2CNC(c3ccccc3F)c3cc(Cl)ccc3N12 (stereo unspecified) | 108 to 110
31 | C[C@H]1[C@@H](C(C)(C)O)CCN1c1ccc(C#N)c2sccc12 | 146 to 147
32 | CCS(=O)(=O)C(F)(F)c1nnc(OCC(=O)N(C)c2ccccc2)s1 | 103 to 104
33 | COc1cc(Br)ccc1OC(=O)c1ccccc1 | 73 to 75
34 | Nc1ccc(Oc2ccccc2-c2ccccc2Oc2ccc(N)c(N)c2)cc1N | 172 to 174
35 | C=CCN1CC(C)N(C(c2ccc(C(=O)N(CC)CC)cc2)c2cccc(O)c2)CC1C (stereo unspecified) | 170 to 171
36 | CCOC(=O)CCCCc1cn(C(c2ccccc2)(c2ccccc2)c2ccccc2)cn1 | 84 to 86
37 | CCN(CC)c1nc(O)cc(OC)n1 | 165 to 166
38 | CC(C)(C)N(NC(=O)c1ccccn1)C(=O)c1ccccc1Br | 179 to 180
39 | N#CC(N)=C(C#N)NCc1ccc(Cl)c(Cl)c1 | 158 to 160
40 | Cc1c2n(c3ccccc13)C(=O)N(Cc1ncn(C(c3ccccc3)(c3ccccc3)c3ccccc3)c1C)CC2 | 210 to 220
41 | CN1C(=O)C(Cc2c[nH]c3c(Cl)cc(S(C)(=O)=O)cc23)NC1=S (stereo unspecified) | 242 to 245
42 | COc1ccc(S(=O)(=O)N2c3ccccc3-c3ccc(F)cc3[C@@H]2C)cc1 | 197 to 198
43 | CC(C)(N)Cc1c[nH]c2ccccc12 | 72 to 74
44 | NC(=O)N(O)CC#Cc1cccc(C2=N[C@H](c3ccc(F)cc3)CO2)c1 | 181
45 | O=C(CCl)C1=NOC(c2c(F)cccc2F)C1 (stereo unspecified) | 82.1 to 83.4
46 | O=C1OCCC23C(=CC=CC12)C1=C(C=C3c2ccc3c(c2)OCO3)OCO1 (stereo unspecified) | 263 to 266
47 | O=C(Nc1c[nH]nc1C(=O)NCCNc1ccccn1)c1ccccn1 | 260 to 262
48 | CCCc1ccc(C(=O)O)cc1[N+](=O)[O-] | 106 to 109
49 | Nc1c(F)c(N2CCC3(CC3N)C2)c(F)c2c1c(=O)c(C(=O)O)cn2[C@@H]1C[C@@H]1F (stereo partly specified) | 180 to 181
50 | [N-]=[N+]=NCC(=O)Nc1ccc(S(=O)(=O)c2cccc(Cl)c2)cc1 | 125 to 126
51 | Cc1ccc(-c2nc3ccc(Cl)nc3n2CC(=O)N(C)C)cc1 | 182 to 185
52 | CC(C)(C)C(=O)Nc1ccc(Br)cc1-c1ccnc(C(F)(F)F)n1 | 153 to 157

Row | Structure (SMILES) | melting point [°C]
53 | O=C(O)C1c2ccccc2COc2ccc(Br)cc21 (stereo unspecified) | 166 to 167
54 | O=C(O)CCCCSc1nc2c(F)c(F)cc(F)c2s1 | 56 to 58
55 | CCc1c(S(=O)(=O)c2ccc(O)cc2)cnn1C | 188 to 190
56 | Cc1nc(Nc2c([N+](=O)[O-])cc(C(F)(F)F)c(Cl)c2[N+](=O)[O-])c(Cl)cc1Cl | 128 to 130
57 | Cc1cccc(-n2nc(C)c3c(=O)c4ccccc4[nH]c32)n1 | 252
58 | COc1ccc(Cc2c(N)nc(N)nc2O)cc1OC | 268 to 270
59 | CN(C)C(=O)N1Cc2c(-c3noc(C4CC4)n3)ncn2-c2cccc(F)c21 | 194 to 195
60 | COc1cc(C#N)ccc1Cc1c[nH]c2ccc([N+](=O)[O-])cc12 | 204 to 206
61 | NC(=NCC(F)(F)F)Nc1ccnc(OCCCCO)n1.[H][H] | 189 to 190
62 | CC(=O)NCCCc1c(Cl)ccc2occc12 | 82 to 83
63 | C=CCC1(CC=C)c2cccc(Cl)c2C(=O)c2c(OC)cccc21 | 151 to 153
64 | CCOC(=O)Nc1nc(C)c(-c2nc3ccccc3c(=O)n2-c2cccc(C)c2)s1 | 210 to 211
65 | O=C(O)CCc1cn(Cc2ccc(OCc3csc(-c4ccccc4)n3)nc2)nc1-c1ccccc1 | 107 to 108
66 | CS(=O)c1ccc(-c2nc3n(c2-c2ccncc2)CCC3)cc1 (stereo unspecified) | 164 to 166
67 | CN1CCN(C2=Nc3ccccc3Nc3c(Cl)cccc32)CC1 | 168 to 170
68 | CC(=O)N=NCc1ccc(OCCCCCOc2ccc(C(=O)N(C(C)C)C(C)C)c(Cl)c2)cc1 | 59 to 61
69 | O=[N+]([O-])c1ccc(OCC(O)CO)c(O)c1 (stereo unspecified) | 162
70 | O=c1nc(C2CC2)c2cc(-c3cccc(Cl)c3)ccc2[nH]1 | 189 to 190
71 | CC(C)(C)C(=O)ON1C(C)(C)CC(OC(=O)CCCCCCCCC(=O)OC2CC(C)(C)N(OC(=O)C(C)(C)C)C(C)(C)C2)CC1(C)C | 93 to 97
72 | O=C1Nc2c(Br)cncc2C1(Br)Br | 250
73 | OCCCc1cnoc1-c1ccc(Cl)cc1 | 58 to 59
74 | COc1ccc(-c2[nH]nc3c2C(=O)c2c(NC(=O)Cc4ccc(N)cc4)cccc2-3)cc1 | 283
75 | COc1ccc(-c2nc3cc(OC)cc(-c4ccccc4)c3o2)cc1 | 92
76 | Clc1ccc(-c2c[nH]cn2)cc1 | 146 to 148
77 | NC(=O)c1ccc(Cn2ccc(NC(=S)NCC(F)(F)F)n2)cc1 | 205 to 206
78 | CCC(C)C1C(=O)NC(=S)N1C(C)=O (stereo unspecified) | 132 to 133

Row | Structure (SMILES) | melting point [°C]
79 | CC(C)Nc1cccnc1N1CCN(C(=O)c2ccc(C(=O)N3CCN(CCCO)CC3)cc2)CC1 | 129
80 | CS(=O)(=O)C(=C1CN(C(c2ccccc2)c2ccccc2)C1)c1cccc([N+](=O)[O-])c1 | 184
81 | CC(C)Cc1cccc(CCCn2c(=O)c3c(N4CCN(C)CC4)cc(Cl)cc3n(Cc3ccccc3)c2=O)c1 | 56 to 62
82 | Cc1cc(Cl)cc(C(=O)NCC2CC2)c1N | 127 to 128
83 | O=C1Cc2cc3c(cc2C(c2ccc([N+](=O)[O-])cc2)=NN1)OCO3 | 293 to 295
84 | O=C(Cc1ccccc1)Nc1ccccc1OCc1ccccc1 | 96 to 98
85 | CCOc1ccc2c(c1)n(C1CCCCC1)c(=O)n2Cc1ccc(C(=O)NC(C)(C)CN(C)C)cc1OC | 161
86 | CCOC(=O)N1Cc2sc3ncn(CCCl)c(=O)c3c2C1 | 169 to 171
87 | CC(C)CCc1c(-c2ccc(S(C)(=O)=O)c(F)c2)cnn(-c2ccc(F)c(Cl)c2)c1=O | 102 to 104
88 | Cc1cc(-c2cccc(C(F)(F)F)c2)nn2c(C)nnc12 | 196 to 198
89 | Cc1ccc(NC(=O)N2CCN(C(=O)c3ccc(Nc4ccnc5cc(C(F)(F)F)ccc45)cc3)CC2)cc1 | 280 to 282
90 | CCOC(=O)CCCCOc1cccc(O)c1C=O | 32 to 33
91 | O=c1oc(C(F)(F)F)ccc1-c1ccc(Cl)cc1F | 107 to 108
92 | CC(C)(C)c1cc(NC(=O)c2cccc(C#N)c2)cc(C(C)(C)C)c1O | 219 to 222
93 | CCOC1=NS(=O)(=O)N(C)C(Cl)=N1 | 75 to 80
94 | CN(CCCC(=O)Nc1ccc2[nH]ncc2c1)Cc1ccccc1 | 115 to 117
95 | Brc1cnc(N=C(c2ccccc2)c2ccccc2)s1 | 109
96 | CCN(CC)C(=O)C(C)(C)n1cc(C)c(-c2ccccc2)n1 | 50 to 52
97 | CSc1c(O)ccc2[nH]ncc12 | 126 to 128
98 | CCC(Oc1ncn(-c2ccc(Cl)c(Cl)c2)n1)C(=O)O (stereo unspecified) | 232 to 234
99 | COc1ccc(S(=O)(=O)Nc2cccnc2Nc2ccc(Oc3ccccc3)cc2)cc1 | 174 to 176
100 | CS(=O)(=O)c1ccc(C[C@H](CO)NC(=O)OCc2ccccc2)cc1 | 110 to 112
101 | CC(=O)OCCn1c2ccccc2c2ccccc21 | 73 to 74.5
